# Like-named read-outs stand apart in the source and are kept apart here.
# How the values were obtained:
# Alcaligenes faecalis A 1 = test: minimum inhibitory concentration, agar dilution assay; format: cell-based; details: A1, agar dilution, 35° C., 20 hours, read-out: minimum inhibitory concentration
# Summary of the method: (§1)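 Two-fold compound dilutions were incorporated into heart infusion agar. Plates were inoculated with overnight Trypto-Soy broth cultures (35 °C, 18-20 h) diluted to about 10^8 cells/ml. After 20 h at 35 °C, MIC was taken as the lowest concentration with no growth.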
# [1] = tested on: Bacillus subtilis ATCC 6633; test: as above; format: cell-based; details: read-out: minimum inhibitory concentration
# Summary of the method: as §1
# [2] = tested on: Citrobacter freundii GN 346; test: as above; format: cell-based; details: GN346, agar dilution, 35° C., 20 hours, read-out: minimum inhibitory concentration
# Summary of the method: as §1
# [3] = tested on: Comamonas terrigena B-996; test: as above; format: cell-based; details: read-out: minimum inhibitory concentration
# Summary of the method: as §1
# [4] = tested on: Enterobacter aerogenes E19; test: as above; format: cell-based; details: Klebsiella aerogenes, E19; agar dilution, 35° C., 20 hours; read-out: minimum inhibitory concentration
# Summary of the method: as §1
# Enterobacter cloacae 45 = test: as above; format: cell-based; details: Enterobacter cloacae, 45; agar dilution, 35° C., 20 hours; read-out: minimum inhibitory concentration
# Summary of the method: as §1
# Enterobacter sp. E8 = test: as above; format: cell-based; details: SP.E8, agar dilution, 35° C., 20 hours, read-out: minimum inhibitory concentration
# Summary of the method: as §1
# Escherichia coli K-12 = test: as above; format: cell-based; details: K12, 20 h, read-out: minimum inhibitory concentration
# Summary of the method: as §1
# Escherichia coli RGN 823 = test: as above; format: cell-based; details: RGN823, agar dilution, 35° C., 20 hours, read-out: minimum inhibitory concentration
# Summary of the method: as §1
# [5] = tested on: Klebsiella pneumoniae K-13; test: as above; format: cell-based; details: K13, agar dilution, 35° C., 20 hours, read-out: minimum inhibitory concentration
# Summary of the method: as §1
# Proteus mirabilis P6 = test: as above; format: cell-based; details: P6, agar dilution, 35° C., 20 hours, read-out: minimum inhibitory concentration
# Summary of the method: as §1
# Proteus rettgeri P7 = test: as above; format: cell-based; details: Providencia rettgeri, P7; agar dilution, 35° C., 20 hours; read-out: minimum inhibitory concentration
# Summary of the method: as §1
# Proteus sp. P22 = test: as above; format: cell-based; details: agar dilution, 35° C., 20 hours; read-out: minimum inhibitory concentration
# Summary of the method: as §1
# Proteus vulgaris GN76 = test: as above; format: cell-based; details: GN76, agar dilution, 35° C., 20 hours, read-out: minimum inhibitory concentration
# Summary of the method: as §1
# Providencia sp. P8 = test: as above; format: cell-based; details: SP.P8, agar dilution, 35° C., 20 hours, read-out: minimum inhibitory concentration
# Summary of the method: as §1
# [6] = tested on: Pseudomonas aeruginosa IFO3445; test: as above; format: cell-based; details: IFO3445, agar dilution, 35° C., 20 hours, read-out: minimum inhibitory concentration
# Summary of the method: as §1
# [7] = tested on: Pseudomonas aeruginosa NCTC10490; test: as above; format: cell-based; details: NCTC10490, agar dilution, 35° C., 20 hours, read-out: minimum inhibitory concentration
# Summary of the method: as §1
# Sarcina lutea = test: as above; format: cell-based; details: Micrococcus luteus, read-out: minimum inhibitory concentration
# Summary of the method: as §1
# Serratia marcescens S18 = test: as above; format: cell-based; details: S18, agar dilution, 35° C., 20 hours, read-out: minimum inhibitory concentration
# Summary of the method: as §1
# Serratia marcescens T55 = test: as above; format: cell-based; details: T55, agar dilution, 35° C., 20 hours, read-out: minimum inhibitory concentration
# Summary of the method: as §1
# [8] = tested on: Staphylococcus aureus FDA 209P; test: as above; format: cell-based; details: FDA209P, read-out: minimum inhibitory concentration
# Summary of the method: as §1
# [9] = tested on: Staphylococcus aureus Russell; test: as above; format: cell-based; details: agar dilution, 35° C., 20 hours, read-out: minimum inhibitory concentration
# Summary of the method: as §1
# [10] = tested on: Staphylococcus aureus Smith; test: as above; format: cell-based; details: agar dilution, 35° C., 20 hours, read-out: minimum inhibitory concentration
# Summary of the method: as §1
# [11] = tested on: Staphylococcus epidermidis; test: as above; format: cell-based; details: read-out: minimum inhibitory concentration
# Summary of the method: as §1
# [12] = tested on: Gram-positive and Gram-negative bacteria; details: stated as known; cited from earlier work
# [13] = tested on: Alcaligenes faecalis B326; test: minimum inhibitory concentration, agar dilution assay; format: cell-based; details: B326, 20 h, read-out: minimum inhibitory concentration
# Summary of the method: as §1
# [14] = Test for concentration in blood (plasma of mouse, bioassay); format: in vivo; details: sc, subcutaneous, 2 mg/mouse, average of five mice
# Description: Typical species of the compounds of formula (I-d) were each administered subcutaneously to five mice in a dose of 2 mg. After 5 minutes from the administration, a small amount of blood was periodically drawn from the eyes of the mice into a heparinized capillary tube, and centrifuged. The concentration of the compound in the supernatant liquid (plasma) was determined by a bioassay method using Comamonas terrigena B-996.
# [15] = tested on: Staphylococcus aureus Smith strain; test: Infection treating test; format: in vivo, Staphylococcus aureus (in ddy male mice); details: sc, 2 h, mice infected intraperitoneally, 5×10^5 cells per mouse, subcutaneous, two hours after infection, read-out: CD50 (the source's name)
# Description: The in vivo activities of the compounds of formula (I-d) were determined by using mice (five per group, ddy male mice, Shizuoka) which had been intraperitoneally infected with Staphylococcus aureus Smith strain in an amount of 5×10^5 cells per mouse. Two hours after the infection, an injection containing a sodium salt of each of the compounds of formula (I-d) was subcutaneously administered to the mice.
# [16] = agar dilution, 35° C., 20 hours
structure (smiles),measurement,setting,value
"Cc1nnc(SCC2=C(C(=O)O)N3C(=O)[C@@H](NC(=O)Cn4cnnn4)[C@H]3SC2)s1 [CEZ, cephazolin, reference compound]",MIC,Alcaligenes faecalis A 1,3.13 µg/mL
same,MIC,"[1]; ATCC6633, agar dilution, 35° C., 20 hours",0.2 µg/mL
same,MIC,[2],> 200 µg/mL
same,MIC,"[3]; B996, agar dilution, 35° C., 20 hours",0.2 µg/mL
same,MIC,[4],> 200 µg/mL
same,MIC,Enterobacter cloacae 45,> 200 µg/mL
same,MIC,Enterobacter sp. E8,3.13 µg/mL
same,MIC,Escherichia coli K-12,1.56 µg/mL
same,MIC,Escherichia coli RGN 823,200 µg/mL
same,MIC,[5],200 µg/mL
same,MIC,Proteus mirabilis P6,6.25 µg/mL
same,MIC,Proteus rettgeri P7,> 200 µg/mL
same,MIC,Proteus sp. P22,> 200 µg/mL
same,MIC,Proteus vulgaris GN76,> 200 µg/mL
same,MIC,Providencia sp. P8,100 µg/mL
same,MIC,[6],> 200 µg/mL
same,MIC,[7],> 200 µg/mL
same,MIC,Sarcina lutea; [16],0.39 µg/mL
same,MIC,Serratia marcescens S18,> 200 µg/mL
same,MIC,Serratia marcescens T55,> 200 µg/mL
same,MIC,[8]; [16],0.1 µg/mL
same,MIC,[9],0.2 µg/mL
same,MIC,[10],0.2 µg/mL
same,MIC,[11]; [16],0.1 µg/mL
same,"effectiveness against Pseudomonas aeruginosa and Serratia, Proteus, Klebsiella, Enterobacter",[12],"known to be effective against Pseudomonas aeruginosa and microorganisms of the genus Serratia, Proteus, Klebsiella, and Enterobacter"
"CCCCSC1=C(C(=O)[O-])N2C(=O)C(CC)C2C1.[Na+] (stereo not shown) [Example 68, Sodium 3-n-butylthio-6-ethyl-7-oxo-1-azabicyclo[3.2.0]hept-2-ene-2-carboxylate]",MIC,[13],15 µg/mL
same,MIC,"[1]; ATCC6633, 20 h",3.75 µg/mL
same,MIC,"[3]; B996, 20 h",0.24 µg/mL
same,MIC,Sarcina lutea; 20 h,1.88 µg/mL
same,MIC,[8]; 20 h,0.24 µg/mL
same,MIC,[11]; 20 h,0.12 µg/mL
CC(=O)NCCSC1=C(C(=O)O)N2C(=O)[C@H](C(C)O)[C@H]2C1 (stereo partly shown) [PS-3A . Na],half-life,[14]; read-out: Half period,12 min
same,Cmax,[14]; read-out: Maximum concentration,52 µg/mL
same,ED50,[15],4 mg/kg
